# According to patent US7772192B2, “Compositions and methods for treatment of disease with acetylated disaccharides” (The Regents of the University of California, priority 2003, dated 2010):
# Legend:
# [1] = tested on: LS180 cells adhering to recombinant P-selectin; experiment: Cell adhesion to immobilized P-selectin; type: cell-based, human; conditions: LS180 cells grown 5 days with disaccharide
# Description: Cell adhesion to immobilized selectins. 96-well plates were coated overnight at 4° C. with recombinant E-selectin (4 μg/ml) or P-selectin (2 μg/ml) (R & D Systems) and blocked with 1% BSA/PBS. LS180 cells were grown for 5 days with various amounts of acetylated disaccharide, harvested, labeled with Calcein AM (5 μM, Molecular Probes) in DMEM/1% FBS, and allowed to settle at room temperature on selectin-coated wells (5×10^4 cells/well). Plates were then stirred at 75 rpm for 30 min (Orbit shaker, Lab-Line Instruments) followed by immersion upside-down in a vessel filled with Hank's buffered saline solution (HBSS, Sigma), which allowed non-adherent cells to fall under gravity. St John et al., J. Immunol Methods, 170: 159-166, 1994. The wells were then washed by aspiration using HBSS. LS180 cells were less adherent to P-selectin, so the immersion step was not necessary prior to washing. […] Fluorescence was measured using a 96-well fluorimeter (CytoFluor II), and the average of triplicate measurements was determined±standard error. Cell viability was judged to be >90% by Trypan blue exclusion at the end of each experiment.
# Adhesion to selectins is altered in disaccharide-treated tumor cells. Treatment of LS180 cells with AcGnG-NM was not toxic to the cells up to 100 μM based on growth curves and exclusion of Trypan blue. […]
# [2] = tested on: LS180 cells adhering to TNF-α activated HMVEC; experiment: Adhesion of tumor cells to activated human endothelial cells; type: cell-based; conditions: LS180 cells grown 5 days with disaccharide
# Description: Adhesion of tumor cells to activated human endothelial cells. HMVEC were added to 96-well plates (1×10^4 cells/well) in EBM-2 media (Clonetics), and allowed to grow to confluence over 2 days. The cells were activated with TNF-α (20 ng/ml; R&D Systems) for 4 hr at 37° C. Calcein labeled tumor cells, harvested after growth for 5 days in various levels of AcGnG-NM, were added to HMVEC at 2.5×10^4 cells/well in 100 μl DMEM and allowed to settle for 20 min. The wells were washed twice with cold PBS, and the extent of binding was determined by fluorimetry. In some experiments anti-E-selectin mAb (2 μg/well) was added prior to addition of tumor cells, cells were treated with sialidase (20 mU/10^6 cells), or TNF-α was omitted.
# AcGnG-NM inhibits adhesion to activated endothelia and platelets. In the circulation, tumor cells can encounter E- and P-selectins expressed on endothelial cells, P-selectin on platelets, and L-selectin on leukocytes. Since the presentation of receptors on cells may differ from their arrangement when immobilized on plastic surfaces, LS180 cells were challenged to bind to E-selectin expressed on TNF-α activated human microvascular endothelial cells (HMVEC). […] HMVEC were activated with TNF-α and overlaid with Calcein-loaded LS180 cells. The extent of adhesion was normalized to the value obtained for cells not treated with disaccharide. […]
# [3] = tested on: LS180 cells; experiment: Biodistribution of pretreated radiolabeled tumor cells in mice; type: in vivo
# Description: Biodistribution studies in mice. LS180 cells were grown for 3 days in the presence or absence of 50 μM AcGnG-NM. [^3H-methyl]thymidine (10 μCi/ml, NEN Life Sciences Products) was added to the medium, and cells were incubated for another 3 days. The cells were then harvested with EDTA, resuspended in sterile 0.9% saline, and injected (1×10^5 cells/100 μL) into the lateral tail vein of anesthetized (inhaled methoxyflurane, Janssen Pharmaceuticals) 6-8 week-old wildtype C57BL/6 mice or P-selectin deficient mice bred on the same background (Jackson Laboratory). Mayadas et al., Cell, 74: 541-554, 1993. […] The organs were digested at 55° C. overnight with Proteinase K (0.15 μg/ml, Boehringer Mannheim) in 2 mL PBS containing 1% sodium dodecyl sulfate, and homogenized by repeated passage through an 18 gauge needle. The amount of radioactive DNA in the blood and the organ extracts was then determined using an Easy DNA Kit (Invitrogen) and liquid scintillation spectrometry. The total counts in blood were estimated by assuming a total blood volume of 2 mL per mouse. Proper attention has been given to experimental ethical considerations towards animals as prescribed by the Animal Subjects Program at the University of California.
# Altered biodistribution of AcGnG-NM treated tumor cells. The lung is the major “first-pass” adhesion target for tumor cells introduced into the venous circulation. […] Radiolabeled cells were injected into the lateral tail vein of C57BL/6 mice, and allowed to circulate for 3 hours. Mice were sacrificed and DNA was extracted from organ homogenates and whole blood. The counts were normalized to the total recovered counts, which typically represented 80-90% of the injected samples. In FIG. 6A, each value represents the average recoveries from 4 wildtype mice±standard deviation from the mean. In FIG. 6B, the experiment was repeated in P-selectin deficient C57BL/6 mice that were injected with either control- or AcGnG-NM-treated LS180 cells. […]
# [4] = Blood cell counts; type: in vivo
# [5] = tested on: mixed oligosaccharides; experiment: Oligosaccharide priming, [6-3H]Gal incorporation; type: cell-based
# Excerpt: (§1) A 4-deoxy modified acetylated disaccharide inhibits sLe^X expression in the absence of oligosaccharide priming.
# [6] = tested on: U937 cells; experiment: sLe^X expression in U937 cells; type: cell-based
# Excerpt: as §1
# [7] = wildtype C57BL/6 mice, 3 hours, cells pretreated with 50 μM
substance,measurement,setting,value
"GlcNAcβ1,3Galβ-O-naphthalenemethanol [AcGnG-NM]",adhesion to recombinant P-selectin,[1],reduced the ability of LS180 cells to adhere
same,adhesion to TNF-α activated HMVEC,[2],inhibited adhesion
same,distribution of treated versus untreated cells,[3]; P-selectin deficient mice,no difference
same,counts recovered in the blood compartment,[3]; [7],corresponding increase
same,seeding of the lungs,[3]; [7],substantially reduced
same,levels of blood cell components,[4]; in vivo,not affected
same,Lymphocytes,[4]; n = 13,6.1 ± 2.1 K/μL
same,Neutrophils,[4]; n = 13,1.5 ± 0.5 K/μL
same,Platelets,[4]; n = 13,1031 ± 174 K/μL
same,Red Blood Cells,[4]; n = 13,10.5 ± 0.9 M/μL
same,Total Leukocytes,[4]; n = 13,7.8 ± 2.6 K/μL
same,incorporation of [6-^3H]Gal into mixed oligosaccharides,[5],stimulates
same,sLe^X expression,[6],inhibit sLe^X expression
